From patent US20150352177A1, “Method Of Treating An Ocular Disease And Compositions Effective For Treating An Ocular Disease” (Howard University, priority 2012, published 2015)

System: severe endophthalmitis
Test: Combination therapy treatment of a subject with severe endophthalmitis (single case)
Format: in vivo, human
Details: topical Ceftazidime, Vancomycin and Prednisolone eye drops every two hours, without efflux transporter inhibitor, over two days, vision dropped to no light perception
Protocol: A uniocular subject was diagnosed with severe endophthalmitis in their only functioning eye. […] The subject was treated with an aggressive treatment regimen of topical antibiotics Ceftazidime eye drops, Vancomycin eye drops and steroid Prednisolone eye drops every two hours.
Cyclosporin A (sold as […]® from Allergan, Inc.) was added to the treatment regimen and was administered prior to administering the antibiotic and steroid eye drops.
The Ceftriaxone was added to the regimen to increase the aggressiveness of the therapy with the goal of preventing or eliminating any traces of infection in the retina, which can result in irreversible blindness.

## CC(C)(O/N=C(\C(=O)N[C@@H]1C(=O)N2C(C(=O)[O-])=C(C[n+]3ccccc3)CS[C@H]12)c1csc(N)n1)C(=O)O [Ceftazidime]
  improvement under initial treatment regimen: no improvement

## C[C@]12C=CC(=O)C=C1CC[C@@H]1[C@@H]2[C@@H](O)C[C@@]2(C)[C@H]1CC[C@]2(O)C(=O)CO [Prednisolone]
  improvement under initial treatment regimen: no improvement

## CN[C@H](CC(C)C)C(=O)N[C@H]1C(=O)N[C@@H](CC(N)=O)C(=O)N[C@H]2C(=O)N[C@H]3C(=O)N[C@H](C(=O)N[C@H](C(=O)O)c4cc(O)cc(O)c4-c4cc3ccc4O)[C@H](O)c3ccc(c(Cl)c3)Oc3cc2cc(c3O[C@@H]2O[C@H](CO)[C@@H](O)[C@H](O)[C@H]2O[C@H]2C[C@](C)(N)[C@H](O)[C@H](C)O2)Oc2ccc(cc2Cl)[C@H]1O [Vancomycin]
  improvement under initial treatment regimen: no improvement
